# Results reported in ChEMBL document CHEMBL1201862, “PubChem BioAssay data set” (2004).
#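 Protocol summary: plate cells (96-well), add compound at 5 concentrations, incubate 48 h, interpolate endpoints linearly. Here, GI50 denotes the concentration required for 50% inhibition of growth.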 Calls of active or inactive are those of the source. Rule as the data show it: active = GI50 up to about 1.1 µM and inactive = higher.
# Assays:
# Assay in all cases: inhibition of tumour cell growth, NCI panel, 48 h
# 786-0 = test system: 786-0
# A498 = test system: A498
# A549 = test system: A549
# ACHN = test system: ACHN
# BT-549 = test system: BT-549
# CAKI-1 = test system: CAKI-1
# CCRF-CEM = test system: CCRF-CEM
# COLO 205 = test system: COLO 205
# DU-145 = test system: DU-145
# EKVX = test system: EKVX
# HCC 2998 = test system: HCC 2998
# HCT-116 = test system: HCT-116
# HCT-15 = test system: HCT-15
# HOP-62 = test system: HOP-62
# HOP-92 = test system: HOP-92
# HT-29 = test system: HT-29
# IGROV-1 = test system: IGROV-1
# K562 = test system: K562
# KM12 = test system: KM12
# LOX IMVI = test system: LOX IMVI
# M14 = test system: M14
# MCF7 = test system: MCF7
# MDA-MB-231 = test system: MDA-MB-231
# MDA-MB-435 = test system: MDA-MB-435
# MDA-N = test system: MDA-N
# MOLT-4 = test system: MOLT-4
# Malme-3M = test system: Malme-3M
# NCI-H226 = test system: NCI-H226
# NCI-H23 = test system: NCI-H23
# NCI-H460 = test system: NCI-H460
# NCI-H522 = test system: NCI-H522
# NCI/ADR-RES = test system: NCI/ADR-RES
# OVCAR-3 = test system: OVCAR-3
# OVCAR-4 = test system: OVCAR-4
# OVCAR-5 = test system: OVCAR-5
# OVCAR-8 = test system: OVCAR-8
# PC-3 = test system: PC-3
# RPMI-8226 = test system: RPMI-8226
# RXF 393 = test system: RXF 393
# SF-268 = test system: SF-268
# SF-295 = test system: SF-295
# SF-539 = test system: SF-539
# SK-MEL-28 = test system: SK-MEL-28
# SK-MEL-2 = test system: SK-MEL-2
# SK-MEL-5 = test system: SK-MEL-5
# SK-OV-3 = test system: SK-OV-3
# SN12C = test system: SN12C
# SNB-19 = test system: SNB-19
# SNB-75 = test system: SNB-75
# SR = test system: SR
# SW-620 = test system: SW-620
# T47D = test system: T47D
# TK-10 = test system: TK-10
# U-251 = test system: U-251
# UACC-257 = test system: UACC-257
# UACC-62 = test system: UACC-62
# UO-31 = test system: UO-31
# HL-60 = test system: HL-60
# Hs-578T = test system: Hs-578T
smiles,measurement,setting,value
O=C(CCCCCCCCC(=O)NN1C(=O)/C(=C\c2ccc(O)c(O)c2)SC1c1ccc(Cl)cc1)NN1C(=O)/C(=C\c2ccc(O)c(O)c2)SC1c1ccc(Cl)cc1 (configuration not stated),GI50,786-0,7.55 µM (inactive)
same,GI50,A498,19.8 µM (inactive)
same,GI50,A549,21.3 µM (inactive)
same,GI50,ACHN,18.3 µM (inactive)
same,GI50,BT-549,> 47.3 µM (inactive)
same,GI50,CAKI-1,9.12 µM (inactive)
same,GI50,CCRF-CEM,< 0.01 µM (active)
same,GI50,COLO 205,24.8 µM (inactive)
same,GI50,DU-145,19.9 µM (inactive)
same,GI50,EKVX,50.8 µM (inactive)
same,GI50,HCC 2998,34.2 µM (inactive)
same,GI50,HCT-116,24.6 µM (inactive)
same,GI50,HCT-15,13.4 µM
same,GI50,HOP-62,10.3 µM (inactive)
same,GI50,HOP-92,11.5 µM (inactive)
same,GI50,HT-29,57.7 µM (inactive)
same,GI50,IGROV-1,2.83 µM (inactive)
same,GI50,K562,21.6 µM (inactive)
same,GI50,KM12,23.8 µM (inactive)
same,GI50,LOX IMVI,13.6 µM (inactive)
same,GI50,M14,20.7 µM (inactive)
same,GI50,MCF7,38.8 µM (inactive)
same,GI50,MDA-MB-231,35.6 µM (inactive)
same,GI50,MDA-MB-435,66.8 µM (inactive)
same,GI50,MDA-N,> 88.1 µM (inactive)
same,GI50,MOLT-4,1.82 µM (inactive)
same,GI50,Malme-3M,23.7 µM (inactive)
same,GI50,NCI-H226,59.3 µM (inactive)
same,GI50,NCI-H23,15.5 µM (inactive)
same,GI50,NCI-H460,30.6 µM (inactive)
same,GI50,NCI-H522,2.87 µM (inactive)
same,GI50,NCI/ADR-RES,28.8 µM (inactive)
same,GI50,OVCAR-3,5.45 µM (inactive)
same,GI50,OVCAR-4,31.9 µM (inactive)
same,GI50,OVCAR-5,> 86.3 µM (inactive)
same,GI50,OVCAR-8,10.7 µM (inactive)
same,GI50,PC-3,20.6 µM (inactive)
same,GI50,RPMI-8226,2.72 µM (inactive)
same,GI50,RXF 393,15.8 µM (inactive)
same,GI50,SF-268,8.67 µM (inactive)
same,GI50,SF-295,16.2 µM (inactive)
same,GI50,SF-539,13.4 µM (inactive)
same,GI50,SK-MEL-28,> 54.7 µM (inactive)
same,GI50,SK-MEL-2,20.4 µM (inactive)
same,GI50,SK-MEL-5,30.6 µM (inactive)
same,GI50,SK-OV-3,22.6 µM (inactive)
same,GI50,SN12C,41.7 µM (inactive)
same,GI50,SNB-19,16.9 µM (inactive)
same,GI50,SNB-75,29.9 µM (inactive)
same,GI50,SR,2.08 µM (inactive)
same,GI50,SW-620,56.5 µM (inactive)
same,GI50,T47D,31.9 µM (inactive)
same,GI50,TK-10,25.8 µM (inactive)
same,GI50,U-251,15.7 µM (inactive)
same,GI50,UACC-257,34 µM (inactive)
same,GI50,UACC-62,14.2 µM (inactive)
same,GI50,UO-31,5.35 µM (inactive)
N#Cc1c2ccc([N+](=O)[O-])cc2c(=O)n2c1sc1ccc(C(F)(F)F)cc12,GI50,786-0,> 100 µM (inactive)
same,GI50,A498,> 100 µM (inactive)
same,GI50,A549,> 100 µM (inactive)
same,GI50,ACHN,> 100 µM (inactive)
same,GI50,BT-549,> 100 µM (inactive)
same,GI50,CAKI-1,> 100 µM (inactive)
same,GI50,COLO 205,> 100 µM (inactive)
same,GI50,DU-145,> 100 µM (inactive)
same,GI50,EKVX,> 100 µM (inactive)
same,GI50,HCT-116,> 100 µM (inactive)
same,GI50,HCT-15,> 100 µM
same,GI50,HOP-62,> 100 µM (inactive)
same,GI50,HOP-92,> 100 µM (inactive)
same,GI50,HT-29,> 100 µM (inactive)
same,GI50,IGROV-1,> 100 µM (inactive)
same,GI50,K562,> 100 µM (inactive)
same,GI50,KM12,> 100 µM (inactive)
same,GI50,LOX IMVI,> 100 µM (inactive)
same,GI50,M14,> 100 µM (inactive)
same,GI50,MDA-MB-231,> 100 µM (inactive)
same,GI50,MDA-MB-435,> 100 µM (inactive)
same,GI50,MOLT-4,> 100 µM (inactive)
same,GI50,Malme-3M,> 100 µM (inactive)
same,GI50,NCI-H226,> 100 µM (inactive)
same,GI50,NCI-H23,> 100 µM (inactive)
same,GI50,NCI-H460,> 100 µM (inactive)
same,GI50,NCI-H522,> 100 µM (inactive)
same,GI50,NCI/ADR-RES,> 100 µM (inactive)
same,GI50,OVCAR-3,> 100 µM (inactive)
same,GI50,OVCAR-4,> 100 µM (inactive)
same,GI50,OVCAR-5,> 100 µM (inactive)
same,GI50,OVCAR-8,> 100 µM (inactive)
same,GI50,RPMI-8226,> 100 µM (inactive)
same,GI50,RXF 393,> 100 µM (inactive)
same,GI50,SF-268,> 100 µM (inactive)
same,GI50,SF-295,> 100 µM (inactive)
same,GI50,SF-539,> 100 µM (inactive)
same,GI50,SK-MEL-28,> 100 µM (inactive)
same,GI50,SK-MEL-5,> 100 µM (inactive)
same,GI50,SK-OV-3,> 100 µM (inactive)
same,GI50,SN12C,> 100 µM (inactive)
same,GI50,SNB-19,> 100 µM (inactive)
same,GI50,SNB-75,> 100 µM (inactive)
same,GI50,SW-620,> 100 µM (inactive)
same,GI50,T47D,> 100 µM (inactive)
same,GI50,TK-10,> 100 µM (inactive)
same,GI50,U-251,> 100 µM (inactive)
same,GI50,UACC-257,> 100 µM (inactive)
same,GI50,UO-31,> 100 µM (inactive)
COc1ccccc1CNC1=Nc2ccncc2S(=O)(=O)N1c1ccccc1,GI50,786-0,> 100 µM (inactive)
same,GI50,A498,45.8 µM (inactive)
same,GI50,A549,> 100 µM (inactive)
same,GI50,ACHN,> 100 µM (inactive)
same,GI50,BT-549,> 100 µM (inactive)
same,GI50,CAKI-1,63.8 µM (inactive)
same,GI50,CCRF-CEM,95.5 µM (inactive)
same,GI50,COLO 205,63.4 µM (inactive)
same,GI50,DU-145,97.5 µM (inactive)
same,GI50,EKVX,> 100 µM (inactive)
same,GI50,HCC 2998,> 100 µM (inactive)
same,GI50,HCT-116,70.5 µM (inactive)
same,GI50,HCT-15,49.7 µM
same,GI50,HL-60,41.1 µM (inactive)
same,GI50,HOP-92,39.7 µM (inactive)
same,GI50,HT-29,> 100 µM (inactive)
same,GI50,Hs-578T,74.8 µM (inactive)
same,GI50,IGROV-1,> 100 µM (inactive)
same,GI50,K562,71 µM (inactive)
same,GI50,KM12,56.6 µM (inactive)
same,GI50,LOX IMVI,> 100 µM (inactive)
same,GI50,M14,> 100 µM (inactive)
same,GI50,MCF7,79.4 µM (inactive)
same,GI50,MDA-MB-435,> 100 µM (inactive)
same,GI50,MOLT-4,69 µM (inactive)
same,GI50,Malme-3M,37.7 µM (inactive)
same,GI50,NCI-H226,> 100 µM (inactive)
same,GI50,NCI-H23,85.1 µM (inactive)
same,GI50,NCI-H460,60.4 µM (inactive)
same,GI50,NCI-H522,25.1 µM (inactive)
same,GI50,NCI/ADR-RES,57.5 µM (inactive)
same,GI50,OVCAR-3,> 100 µM (inactive)
same,GI50,OVCAR-4,> 100 µM (inactive)
same,GI50,OVCAR-5,> 100 µM (inactive)
same,GI50,OVCAR-8,84.7 µM (inactive)
same,GI50,PC-3,31 µM (inactive)
same,GI50,RPMI-8226,60.5 µM (inactive)
same,GI50,RXF 393,2.47 µM (inactive)
same,GI50,SF-295,41.1 µM (inactive)
same,GI50,SK-MEL-28,> 100 µM (inactive)
same,GI50,SK-MEL-5,34 µM (inactive)
same,GI50,SK-OV-3,> 100 µM (inactive)
same,GI50,SN12C,> 100 µM (inactive)
same,GI50,SNB-19,> 100 µM (inactive)
same,GI50,SR,92.7 µM (inactive)
same,GI50,SW-620,> 100 µM (inactive)
same,GI50,TK-10,> 100 µM (inactive)
same,GI50,U-251,52.1 µM (inactive)
same,GI50,UACC-257,82.8 µM (inactive)
same,GI50,UACC-62,35.9 µM (inactive)
same,GI50,UO-31,> 100 µM (inactive)
